From patent publication US8680159B2, “Bradykinin 1 receptor modulating compounds” (Gruenenthal GmbH, priority 2010, dated 2014)
Read-outs that look alike come from different tables or passages of the source.

Experiments:
[1] = biological target: T1, B1R receptor of the rat (CHO K1 cells stably transfected with the B1R gene of the rat) (Rattus norvegicus, UniProt P97583); assay: Functional study on the bradykinin receptor 1 (B1R), Ca2+ fluorescence (Fluo-4) FLIPR/Novostar assay, rB1R cells; type: cell-based; conditions: for inhibition at 10 µM: CHO-K1, 10 μM, read-out: % Inhibition (r-B1R) at 10 μM
T1 construct: expressed in transfected cells; host or cells: CHO K1 cells (Chinese hamster ovary), stably transfected
T1 sequence (P97583 1-337): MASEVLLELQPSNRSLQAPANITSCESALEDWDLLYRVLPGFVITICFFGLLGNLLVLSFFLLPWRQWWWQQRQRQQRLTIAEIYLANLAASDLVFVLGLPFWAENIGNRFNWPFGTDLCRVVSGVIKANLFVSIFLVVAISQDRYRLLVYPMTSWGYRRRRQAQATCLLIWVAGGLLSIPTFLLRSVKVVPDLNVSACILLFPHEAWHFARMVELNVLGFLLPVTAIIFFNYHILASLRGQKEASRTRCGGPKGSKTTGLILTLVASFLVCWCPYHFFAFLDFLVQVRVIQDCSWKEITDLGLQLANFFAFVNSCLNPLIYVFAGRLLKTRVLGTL
Outline: (§1)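 Ca2+ influx (Fluo-4, peak fluorescence, λex 488/λem 540 nm) was measured in CHO K1 lines expressing rat or human B1R. After a 10 μM test-compound pre-addition scoring % activation, cells received EC80 agonist: Des-Arg9-bradykinin for rat, Lys-Des-Arg9-bradykinin for human. Antagonism was expressed as % of maximum inhibition, with IC50 from varied concentrations.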

[2] = biological target: T2, human B1R receptor (CHO K1 cells stably transfected with the human B1R gene) (Homo sapiens, UniProt P46663); assay: Functional study on the bradykinin receptor 1 (B1R), Ca2+ fluorescence (Fluo-4) FLIPR/Novostar assay, hB1R cells; type: cell-based
T2 construct: expressed in transfected cells; host or cells: CHO K1 cells (Chinese hamster ovary), stably transfected
T2 sequence (P46663 1-353): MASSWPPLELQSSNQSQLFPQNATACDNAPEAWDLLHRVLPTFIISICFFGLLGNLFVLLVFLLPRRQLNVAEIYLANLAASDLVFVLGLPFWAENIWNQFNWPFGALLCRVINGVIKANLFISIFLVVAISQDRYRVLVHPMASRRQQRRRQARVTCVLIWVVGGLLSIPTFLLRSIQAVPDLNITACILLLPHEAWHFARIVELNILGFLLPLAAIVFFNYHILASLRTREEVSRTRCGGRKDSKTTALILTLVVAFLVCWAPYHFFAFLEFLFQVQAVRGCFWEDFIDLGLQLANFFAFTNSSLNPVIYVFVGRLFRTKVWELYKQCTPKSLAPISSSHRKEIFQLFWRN
Outline: as §1

[3] = CHO-K1, read-out: % Inhibition (h-B1R) at 10 μM
[4] = CHO-K1, read-out: % inhibition (human B1R) at 10 μM

Row | Compound | inhibition at 10 µM [1] | inhibition at 10 µM [2, 3] | % Inhibition (r-B1R) at 10 μM ([1]; 10 μM) | inhibition at 10 µM [2, 4]
1 | CN(C(=O)c1ccc2c(c1)C(NC(=O)C1CCCCC1)CCC2)C1CCN(c2ccncc2)CC1 (centres unmarked) [CC_H-05, 8-(Cyclohexanecarbonylamino)-N-methyl-N-(1-pyridin-4-yl-piperidin-4-yl)-5,6,7,8-tetrahydro-naphthalene-2-carboxylic acid amide] | 103% | 98% |  | 
2 | CN(C(=O)c1ccc2c(c1)C(NC(=O)CCC1CCCC1)CCC2)C1CCN(c2ccncc2)CC1 (centres unmarked) [CC_H-06, 8-(3-Cyclopentyl-propanoylamino)-N-methyl-N-(1-pyridin-4-yl-piperidin-4-yl)-5,6,7,8-tetrahydro-naphthalene-2-carboxylic acid amide] | 104% | 100% |  | 
3 | CN(C(=O)c1ccc2c(c1)CCC2NC(=O)c1sccc1Cl)C1CCN(c2ccncc2)CC1 (centres unmarked) [CC_H-13, 3-Chloro-N-[5-[methyl-(1-pyridin-4-yl-piperidin-4-yl)-carbamoyl]-2,3-dihydro-1H-inden-1-yl]-thiophene-2-carboxylic acid amide] | 78% | 100% |  | 
4 | Cc1cc(N2CCC(N(C)C(=O)c3ccc4c(c3)[C@H](NC(=O)CC(C)C(C)C)CC4)CC2)nc(C)n1 (stereo partly drawn) [Example H-223, (3R)-3-(3,4-Dimethyl-pentanoylamino)-N-[1-(2,6-dimethyl-pyrimidin-4-yl)-piperidin-4-y]-N-methyl-2,3-dihydro-1H-indene-5-carboxylic acid amide] |  |  |  | 96%
5 | COc1cc(C(=O)N[C@@H]2CCc3ccc(C(=O)N(C)C4CCN(c5cc(C)nc(C)n5)CC4)cc32)on1 [Example H-224, N-[(1R)-6-[[1-(2,6-Dimethyl-pyrimidin-4-yl)-piperidin-4-yl]-methyl-carbamoyl]-2,3-dihydro-1H-inden-1-yl]-3-methoxy-isoxazole-5-carboxylic acid amide] |  |  |  | 98%
6 | COc1cc(C(=O)N[C@@H]2CCc3ccc(C(=O)N(C)C4CCN(c5ccnc(C)c5)CC4)cc32)on1 [Example H-225, 3-Methoxy-N-[(1R)-6-[methyl-[1-(2-methyl-pyridin-4-yl)-piperidin-4-yl]-carbamoyl]-2,3-dihydro-1H-inden-1-yl]-isoxazole-5-carboxylic acid amide] |  |  |  | 100%
7 | Cc1cc(N2CCC(N(C)C(=O)c3ccc4c(c3)[C@H](NC(=O)C3CCCC3)CC4)CC2)nc(C)n1 [Example H-226, (3R)-3-(Cyclopentanecarbonylamino)-N-[1-(2,6-dimethyl-pyrimidin-4-yl)-piperidin-4-yl]-N-methyl-2,3-dihydro-1H-indene-5-carboxylic acid amide] |  |  |  | 99%
8 | Cc1cc(N2CCC(N(C)C(=O)c3ccc4c(c3)[C@H](NC(=O)C3CCCC3)CC4)CC2)ccn1 [Example H-227, (3R)-3-(Cyclopentanecarbonylamino)-N-methyl-N-[1-(2-methyl-pyridin-4-yl)-piperidin-4-yl]-2,3-dihydro-1H-indene-5-carboxylic acid amide] |  |  |  | 100%
9 | CN(C)c1nccc(N2CCC(N(C)C(=O)c3ccc4c(c3)[C@H](NC(=O)C3CCCC3)CC4)CC2)n1 [Example H-228, (3R)-3-(Cyclopentanecarbonylamino)-N-[1-(2-dimethylamino-pyrimidin-4-yl)-piperidin-4-yl]-N-methyl-2,3-dihydro-1H-indene-5-carboxylic acid amide] |  |  |  | 96%
10 | CCN(C(=O)C1CCCC1)[C@@H]1CCc2ccc(C(=O)N(C)C3CCN(c4cc(C)nc(C)n4)CC3)cc21 [Example H-229, (3R)-3-(Cyclopentanecarbonyl-ethyl-amino)-N-[1-(2,6-dimethyl-pyrimidin-4-yl)-piperidin-4-yl]-N-methyl-2,3-dihydro-1H-indene-5-carboxylic acid amide] |  |  |  | 98%
11 | Cc1cc(N2CCC(N(C)C(=O)c3ccc4c(c3)[C@H](N(C)C(=O)C3CCCC3)CC4)CC2)nc(C)n1 [Example H-230, (3R)-3-(Cyclopentanecarbonyl-methyl-amino)-N-[1-(2,6-dimethyl-pyrimidin-4-yl)-piperidin-4-yl]-N-methyl-2,3-dihydro-1H-indene-5-carboxylic acid amide] |  |  |  | 98%
12 | CN(C(=O)c1ccc2c(c1)[C@H](NC(=O)c1ccccc1Cl)CC2)C1CCN(c2ccnc(N)n2)CC1 [Example H-244, (3R)-N-[1-(2-Amino-pyrimidin-4-yl)-piperidin-4-yl]-3-[(2-chloro-benzoyl)amino]-N-methyl-2,3-dihydro-1H-indene-5-carboxylic acid amide] |  |  |  | 100%

The remaining lines, values ahead:

Row | inhibition at 10 µM [1] | inhibition at 10 µM [2, 3] | % Inhibition (r-B1R) at 10 μM ([1]; 10 μM) | inhibition at 10 µM [2, 4] | Compound
13 | 103% | 99% |  |  | CN(C(=O)c1ccc2c(c1)C(NC(=O)c1cccc(Cl)c1Cl)CCC2)C1CCN(c2ccncc2)CC1 (centres unmarked) [CC_H-03, 8-[(2,3-Dichloro-benzoyl)amino]-N-methyl-N-(1-pyridin-4-yl-piperidin-4-yl)-5,6,7,8-tetrahydro-naphthalene-2-carboxylic acid amide]
14 |  | 99% | 104% |  | CN(C(=O)c1ccc2c(c1)C(NC(=O)c1cc(F)ccc1Cl)CCC2)C1CCN(c2ccncc2)CC1 (centres unmarked) [CC_H-04, 8-[(2-Chloro-5-fluoro-benzoyl)amino]-N-methyl-N-(1-pyridin-4-yl-piperidin-4-yl)-5,6,7,8-tetrahydro-naphthalene-2-carboxylic acid amide]
15 | 103% | 99% |  |  | CN(C(=O)c1ccc2c(c1)C(NC(=O)c1sccc1Cl)CCC2)C1CCN(c2ccncc2)CC1 (centres unmarked) [CC_H-07, 3-Chloro-N-[7-[methyl-(1-pyridin-4-yl-piperidin-4-yl)-carbamoyl]-1,2,3,4-tetrahydro-naphthalen-1-yl]-thiophene-2-carboxylic acid amide]
16 | 104% | 99% |  |  | CN(C(=O)c1ccc2c(c1)C(NC(=O)c1cncnc1)CCC2)C1CCN(c2ccncc2)CC1 (centres unmarked) [CC_H-08, N-[7-[Methyl-(1-pyridin-4-yl-piperidin-4-yl)-carbamoyl]-1,2,3,4-tetrahydro-naphthalen-1-yl]-pyrimidine-5-carboxylic acid amide]
17 | 103% | 99% |  |  | Cc1cccc(C)c1C(=O)NC1CCCc2ccc(C(=O)N(C)C3CCN(c4ccncc4)CC3)cc21 (centres unmarked) [CC_H-09, 8-[(2,6-Dimethyl-benzoyl)amino]-N-methyl-N-(1-pyridin-4-yl-piperidin-4-yl)-5,6,7,8-tetrahydro-naphthalene-2-carboxylic acid amide]
18 | 103% | 99% |  |  | CN(C(=O)c1ccc2c(c1)C(NC(=O)c1c(Cl)cccc1C(F)(F)F)CCC2)C1CCN(c2ccncc2)CC1 (centres unmarked) [CC_H-11, 8-[[2-Chloro-6-(trifluoromethyl)-benzoyl]amino]-N-methyl-N-(1-pyridin-4-yl-piperidin-4-yl)-5,6,7,8-tetrahydro-naphthalene-2-carboxylic acid amide]
19 | 104% | 100% |  |  | CN(C(=O)c1ccc2c(c1)C(NC(=O)c1cnccc1C(F)(F)F)CC2(C)C)C1CCN(c2ccncc2)CC1 (centres unmarked) [CC_H-12, N-[3,3-Dimethyl-6-[methyl-(1-pyridin-4-yl-piperidin-4-yl)-carbamoyl]-1,2-dihydro-inden-1-yl]-4-(trifluoromethyl)-pyridine-3-carboxylic acid amide]
20 | 104% | 99% |  |  | CN(C(=O)c1ccc2c(c1)C(NC(=O)C1CCCCC1)CC2(C)C)C1CCN(c2ccncc2)CC1 (centres unmarked) [CC_H-14, 3-(Cyclohexanecarbonylamino)-N,1,1-trimethyl-N-(1-pyridin-4-yl-piperidin-4-yl)-2,3-dihydro-indene-5-carboxylic acid amide]
21 | 101% | 99% |  |  | CN(C(=O)NC1CC(C)(C)c2ccc(C(=O)N(C)C3CCN(c4ccncc4)CC3)cc21)c1ccccc1Cl (centres unmarked) [CC_H-15, 3-[[(2-Chlorophenyl)-methyl-carbamoyl]amino]-N,1,1-trimethyl-N-(1-pyridin-4-yl-piperidin-4-yl)-2,3-dihydro-indene-5-carboxylic acid amide]
22 | 104% | 99% |  |  | CN(C(=O)c1ccc2c(c1)C(NS(=O)(=O)c1c(Cl)cccc1C(F)(F)F)CCC2)C1CCN(c2ccncc2)CC1 (centres unmarked) [CC_H-16, 8-[[[2-Chloro-6-(trifluoromethyl)-phenyl]sulfonyl]amino]-N-methyl-N-(1-pyridin-4-yl-piperidin-4-yl)-5,6,7,8-tetrahydro-naphthalene-2-carboxylic acid amide]
